Laboratory results published in patent US6821980B1, “Substituted 5-benzyl-2,4-diaminopyrimidines” (Basilea Pharmaceutica AG, priority 1999, dated 2004).
Converted amounts (≈) assume the structure as drawn. Read-outs that look alike come from different tables or passages of the source.

Tests used:
[1] = molecular target: purified DHFR of strain 157/4696 of Staphylococcus aureus (Staphylococcus aureus, UniProt P13955); experiment: biochemical
[2] = molecular target: T1, purified DHFR of strain Sp1/1 of Streptococcus pneumoniae (Streptococcus pneumoniae serotype 4, UniProt Q54801); format: biochemical
T1 sequence (Q54801 1-168 I100L): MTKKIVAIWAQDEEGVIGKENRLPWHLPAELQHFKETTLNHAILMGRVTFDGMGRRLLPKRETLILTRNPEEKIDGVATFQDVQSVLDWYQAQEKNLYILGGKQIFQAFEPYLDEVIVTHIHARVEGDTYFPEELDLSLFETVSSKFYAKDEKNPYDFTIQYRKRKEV

[3] = test system: Staphylococcus aureus 101; experiment: MIC against Staphylococcus aureus 101; format: cell-based; conditions: Staphylococcus aureus 101, MRSA- and trimethoprim-resistant, clinical isolate; for MIC: read-out: MIC Sa101
[4] = test system: Streptococcus pneumoniae 1/1; experiment: MIC against Streptococcus pneumoniae 1/1; format: cell-based; conditions: Streptococcus pneumoniae 1/1, trimethoprim- and penicillin-resistant, serotype 6, clinical isolate; for MIC: read-out: MIC Sp1/1
[5] = Table 2, IC50 against purified DHFR of strain 157/4696 (highly trimethoprim-resistant; clinical isolate), read-out: DHFR Sa1
[6] = Table 2, IC50 against purified DHFR of strain Sp1/1

purified DHFR of strain 157/4696 of Staphylococcus aureus, sequence (P13955 whole entry): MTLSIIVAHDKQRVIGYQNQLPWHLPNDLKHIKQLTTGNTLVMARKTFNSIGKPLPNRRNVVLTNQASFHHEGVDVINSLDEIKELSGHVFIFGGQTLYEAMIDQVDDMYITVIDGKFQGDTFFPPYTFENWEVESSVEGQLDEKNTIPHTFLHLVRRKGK

Compound	IC50 [1, 5]	IC50 [2, 6]	MIC Sa101 ([3]; Table 2)	MIC Sp1/1 ([4]; Table 2)	IC50 [1]	MIC ([3]; Table 2)	MIC ([4]; Table 2)	IC50 [2]	MIC ([3]; Table 1)	MIC ([4]; Table 1)
5-[2-Cyclopropylmethyl-6-ethoxy-4′-(2-morpholin-4-yl-ethoxy)-biphenyl-4-ylmethyl]-pyrimidine-2,4-diamine [Example 56-]	0.8 µM	0.032 µM	8 mg/L	2 mg/L						
5-[4′-Amino-2-[(2-tetrahydropyran-4-yl)-ethoxy]-6-ethoxy-4′-methyl-biphenyl-4-ylmethyl]-pyrimidine-2,4-diamine [Example 11-b]	0.9 µM	0.0098 µM	8 mg/L	1 mg/L						
CCOc1cc(Cc2cnc(N)nc2N)cc(OCC)c1-c1ccc([S+](C)[O-])cc1 (racemic) [Example 02-j, (RS)-5-(2,6-Diethoxy-4′-methanesulphinyl-biphenyl-4-ylmetyl)-pyrimidine-2,4-diamine]		0.072 µM			1.7 µM	8 mg/L (≈ 18.8 µM)	4 mg/L (≈ 9.38 µM)			
CCOc1cc(Cc2cnc(N)nc2N)cc(OCC)c1-c1ccc(N2CC(COC)OC2=O)cc1 (racemic) [Example 04-s, (RS)-3-[4′-(2,4-Diamino-pyrimidin-5-ylmethyl)-2′,6′-diethoxy-biphenyl-4-yl]-5-methoxymethyl-oxazolidin-2-one]		0.061 µM			1.9 µM	8 mg/L (≈ 16.2 µM)	4 mg/L (≈ 8.1 µM)			
CCOc1cc(Cc2cnc(N)nc2N)cc(OCCC2CCCCO2)c1-c1cccc(N)c1 (racemic) [Example 07-h, (RS)-5-[3′-Amino-6-ethoxy-2-[2-(tetrahydro-pyran-2-yl)-ethoxy]-biphenyl-4-ylmethyl]-2yrimidine-2,4-diamine]		0.027 µM			2.2 µM	8 mg/L (≈ 17.3 µM)	2 mg/L (≈ 4.31 µM)			
CCOc1cc(Cc2cnc(N)nc2N)cc(OCCC2CCCCO2)c1-c1ccc(O)cc1 (racemic) [Example 08-t, (RS)-4′-(2,4-Diamino-pyrimidin-5-ylmethyl)-6′-ethoxy-2′-[2-(tetrahydro-pyran-2-yl)-ethoxy]-biphenyl-4-ol]		0.025 µM			2.4 µM	8 mg/L (≈ 17.2 µM)	2 mg/L (≈ 4.31 µM)			
CCOc1cc(Cc2cnc(N)nc2N)cc(O[C@@H]2CCC[C@H]2CC#N)c1-c1ccc(O)cc1 (racemic) [Example 08-u, rac-(E)-{2-[4-(2,4-Diamino-pyrimidin-5-ylmethyl)-6-ethoxy-4′-hydroxy-biphenyl-2-yloxy]-cyclopentyl}-acetonitrile]	1.8 µM	0.15 µM	8 mg/L (≈ 17.4 µM)	4 mg/L (≈ 8.7 µM)						
CCOc1cc(Cc2cnc(N)nc2N)cc(OC2CCCC2COC)c1-c1ccc(O)cc1 (racemic) [Example 08-v, rac-(E)-5-[6-Ethoxy-4′-hydroxy-2-(2-methoxymethyl-cyclopentyloxy)-biphenyl-4-ylmethyl]-pyrimidine-2,4-diamine]		0.082 µM			1.5 µM	8 mg/L (≈ 17.2 µM)	2 mg/L (≈ 4.31 µM)			
CCOc1cc(Cc2cnc(N)nc2N)cc(O[C@@H]2CCC[C@H]2OC)c1-c1ccc(O)cc1 (relative stereo) [Example 08-y, 5-[6-Ethoxy-2((trans)-2-methoxy-cyclopentyloxy)-4′-hydroxy-biphenyl-4-ylmethtl]-pyrimidine-2,4-diamine]		0.095 µM			2.7 µM	8 mg/L (≈ 17.8 µM)	4 mg/L (≈ 8.88 µM)			
CCOc1cc(Cc2cnc(N)nc2N)cc(OCC)c1-n1cccc1 [Epiroprim, reference compound]			16 mg/L (≈ 45.3 µM)	4 mg/L (≈ 11.3 µM)				0.19 µM	16 mg/L (≈ 45.3 µM)	4 mg/L (≈ 11.3 µM)
CCOc1cc(Cc2cnc(N)nc2N)cc(OCC)c1-c1ccc(OC)c(COC)c1 [Example 02-aa, 5-(2,6-Diethoxy-4′-methoxy-3′-methoxymethyl-biphenyl-4-ylmethyl)-pyrimidine-2,4-diamine]		0.06 µM			2.5 µM	8 mg/L (≈ 18.2 µM)	4 mg/L (≈ 9.12 µM)			
CCOc1cc(Cc2cnc(N)nc2N)cc(OCC)c1-c1ccc(CO)s1 [Example 02-ab, [5-[4-(2,4-Diamino-pyrimidin-5-ylmethyl)-2,6-diethoxy-phenyl]-thiophen-2-yl]-methanol]		0.038 µM			0.88 µM	4 mg/L (≈ 9.99 µM)	2 mg/L (≈ 4.99 µM)			
CCOc1cc(Cc2cnc(N)nc2N)cc(OCC)c1-c1ccc(CN2CCOCC2)s1 [Example 02-ac, 5-f3,5-Diethoxy-4-(5-morpholin-4-ylmethyl-thiophen-2-yl)-benzyl-pyrimidine-2,4-diamine]		0.065 µM			0.65 µM	8 mg/L (≈ 17 µM)	2 mg/L (≈ 4.26 µM)			
CCOc1cc(Cc2cnc(N)nc2N)cc(OCC)c1-c1ccc(C)c(N)c1 [Example 02-ad, 5-(3′-Amino-2,6-diethoxy-4′-methyl-biphenyl-4-ylmethyl)-pyrimidine-2,4-diamine]		0.085 µM			2 µM	8 mg/L (≈ 20.3 µM)	4 mg/L (≈ 10.2 µM)			
CCOc1cc(Cc2cnc(N)nc2N)cc(OCC)c1-c1ccc(O)c(F)c1 [Example 02-ae, 4′-(2,4-Diamino-pyrimidin-5-ylmethyl)-2′,6′-diethoxy-3-fluoro-biphenyl-4-ol]		0.15 µM			1.6 µM	4 mg/L (≈ 10 µM)	8 mg/L (≈ 20.1 µM)			
CCOc1cc(Cc2cnc(N)nc2N)cc(OCC)c1-c1cccc(S(C)(=O)=O)c1 [Example 02-af, 5-(2,6-Diethoxy-3′-methylsulphonyl-biphenyl-4-ylmethyl)-pyrimidine-2,4-diamine]		0.085 µM			1.8 µM	8 mg/L (≈ 18.1 µM)	8 mg/L (≈ 18.1 µM)			
CCOc1cc(Cc2cnc(N)nc2N)cc(OCC)c1-c1ccc(C=O)cc1 [Example 02-ag, 4′-(2,4-Diamino-pyrimidin-5-ylmetyl)-2′,6′-diethoxy-biphenyl-4-carbaldehyde]		0.13 µM			2.2 µM	8 mg/L (≈ 20.4 µM)	8 mg/L (≈ 20.4 µM)			
CCOc1cc(Cc2cnc(N)nc2N)cc(OCC)c1-c1ccc2[nH]ccc2c1 [Example 02-d, 5-(3,5-Diethoxy-4-(1H-indol-5-yl)-benzyl)-pyrimidine-2,4-diamine]		0.035 µM			1.4 µM	8 mg/L (≈ 19.8 µM)	1 mg/L (≈ 2.48 µM)			
CCOc1cc(Cc2cnc(N)nc2N)cc(OCC)c1-c1ccc2cc[nH]c2c1 [Example 02-e, 5-[3,5-Diethoxy-4-(1H-indol-6-yl)-benzl]-pyrimidine-2,4-diamine]		0.022 µM			1 µM	4 mg/L (≈ 9.91 µM)	2 mg/L (≈ 4.96 µM)			
CCOc1cc(Cc2cnc(N)nc2N)cc(OCC)c1-c1ccc2cc(O)ccc2c1 [Example 02-f, 6-[4-(2,4-Diamino-pyrimidin-5-ylmethyl)-2,6-diethoxy-phenyl]-naphthalen-2-ol]		0.028 µM			1.7 µM	4 mg/L (≈ 9.29 µM)	4 mg/L (≈ 9.29 µM)			
CCOc1cc(Cc2cnc(N)nc2N)cc(OCC)c1-c1ccc2[nH]ncc2c1 [Example 02-g, 5-[3,5-Diethoxy-4-(1H-indazol-5-yl)-benzyl]-pyrimidine-2,4-diamine]		0.012 µM			0.65 µM	8 mg/L (≈ 19.8 µM)	2 mg/L (≈ 4.94 µM)			
CCOc1cc(Cc2cnc(N)nc2N)cc(OCC)c1-c1ccc2c(c1)NCCO2 [Example 02-h, 5-[4-(3,4-Dihydro-2H-benzo[1.4]oxazin-6-yl)-3,5-diethoxy-benzyl]-pyrimidine-2,4-diamine]		0.038 µM			1.2 µM	8 mg/L (≈ 19 µM)	4 mg/L (≈ 9.49 µM)			
CCOc1cc(Cc2cnc(N)nc2N)cc(OCC)c1-c1ccc(S(C)(=O)=O)cc1 [Example 02-i, 5-(2,6-Diethoxy-4′-methanesulphonyl-biphenyl-4-ylmethyl)-pyrimidine-2,4-diamine]		0.1 µM			1.6 µM	8 mg/L (≈ 18.1 µM)	2 mg/L (≈ 4.52 µM)			
CCOc1cc(Cc2cnc(N)nc2N)cc(OCC)c1-c1ccc(OC)c(OC)c1 [Example 02-l, 5-(2,6-Diethoxy-3′,4′-dimethoxy-biphenyl-4-ylmethy)-pyrimidine-2,4-diamine]		0.16 µM			8 µM	8 mg/L (≈ 18.8 µM)	4 mg/L (≈ 9.42 µM)			
CCOc1cc(Cc2cnc(N)nc2N)cc(OCC)c1-c1cccs1 [Example 02-m, 5-(3,5-Diethoxy-4-thiophen-2-yl-benzyl)-pyrimidine-2,4-diamine]		0.058 µM			0.7 µM	8 mg/L (≈ 21.6 µM)	4 mg/L (≈ 10.8 µM)			
CCOc1cc(Cc2cnc(N)nc2N)cc(OCC)c1-c1ccc(OC)c(C)c1 [Example 02-n, 5-(2,6-Diethoxy-4′-methoxy-3′-metyl-biphenyl-4-ylmethyl)-pyrimidine-2,4-diamine]		0.11 µM			1.4 µM	8 mg/L (≈ 19.6 µM)	4 mg/L (≈ 9.79 µM)			
CCOc1cc(Cc2cnc(N)nc2N)cc(OCC)c1-c1ccc(NC(C)=O)cc1 [Example 04-p, N-[4′-(2,4-Diamino-pyrimidin-5-ylmethl)-2′,6′-diethoxy-biphen-4-yl]-acetamide]			8 mg/L (≈ 19 µM)	2 mg/L (≈ 4.74 µM)						
CCOc1cc(Cc2cnc(N)nc2N)cc(OCC2(CC#N)CC2)c1-c1ccc(OC)cc1 [Example 09-b]					1.9 µM	8 mg/L (≈ 17.4 µM)	2 mg/L (≈ 4.35 µM)			
COc1cc(Cc2cnc(N)nc2N)cc(OC)c1OC [Trimethoprim, reference compound]			32 mg/L (≈ 110 µM)	>32 mg/L					32 mg/L (≈ 110 µM)	> 32 mg/L
